Where two headings read alike, the source gives them in different places.
Key:
[1] = target: T1, 5-HT3 (Homo sapiens, UniProt P46098); test: Radioligand binding, 5-HT3 ([3H] BRL 43694), membrane homogenates of HEK-293 cells; conditions: Table 5
T1 construct: host or cells: HEK-293
T1 sequence (P46098 24-478): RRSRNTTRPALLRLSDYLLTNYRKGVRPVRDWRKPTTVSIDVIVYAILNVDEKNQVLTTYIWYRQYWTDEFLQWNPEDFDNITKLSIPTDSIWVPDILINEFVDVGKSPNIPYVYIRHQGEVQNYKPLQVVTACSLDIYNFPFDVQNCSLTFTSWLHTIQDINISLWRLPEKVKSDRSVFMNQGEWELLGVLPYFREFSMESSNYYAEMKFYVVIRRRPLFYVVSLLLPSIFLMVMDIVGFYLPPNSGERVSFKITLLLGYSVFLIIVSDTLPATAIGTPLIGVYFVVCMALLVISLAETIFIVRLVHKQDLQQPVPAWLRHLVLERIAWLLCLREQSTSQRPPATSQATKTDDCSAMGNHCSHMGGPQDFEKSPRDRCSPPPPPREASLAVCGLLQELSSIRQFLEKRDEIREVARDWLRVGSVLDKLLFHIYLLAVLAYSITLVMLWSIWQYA
Method: (§1) Cellular assays were performed by Eurofins CEREP SA, Celle-Lévescault, France. All receptors were separately expressed in HEK-293 cells. Cell membrane homogenates (30 μg protein) are incubated for 60 min (5-HT1A, 5-HT2A, 5-HT2B) or 120 min (5-HT3) at 22° C. with radiolabeled ligand in the absence or presence of the test compound in a buffer containing 50 mM Tris-HCl (pH 7.4), 5 mM MgCl2, 10 μM pargyline and 0.1% ascorbic acid. For 5-HT3, the buffer contained 50 mM Tris-HCl (pH 7.4), 5 mM MgCl2, and 1 mM EDTA. Binding was reported as the Ki for the inhibition of binding of well-characterized orthosteric ligands. The ligands used for each receptor were: • 5-HT1A: [^3H] 8-OH-DPAT • 5-HT2A: [^125] […]
(§2) Nonspecific binding was determined in the presence of 1 μM unlabeled ligand listed above. […] The filters were dried then counted for radioactivity in a scintillation counter (Topcount, Packard) using a scintillation cocktail (Microscint 0, Packard). The results are expressed as a percent inhibition of the control radioligand specific binding.
(§3) The IC50 values and Hill coefficients (nH) were determined by non-linear regression analysis of the competition curves generated with mean replicate values using Hill equation curve fitting Y=D+[(A−D)/(1+(C/C50)^nH)] where Y=specific binding, A=left asymptote of the curve, D=right asymptote of the curve, C=compound concentration, C50=IC50, and nH=slope factor. […]

[2] = target: T2, 5-HT1A (Homo sapiens, UniProt P08908); test: Radioligand binding, 5-HT1A ([3H] 8-OH-DPAT), membrane homogenates of HEK-293 cells; conditions: Table 5
T2 construct: host or cells: HEK-293
T2 sequence (P08908 1-422): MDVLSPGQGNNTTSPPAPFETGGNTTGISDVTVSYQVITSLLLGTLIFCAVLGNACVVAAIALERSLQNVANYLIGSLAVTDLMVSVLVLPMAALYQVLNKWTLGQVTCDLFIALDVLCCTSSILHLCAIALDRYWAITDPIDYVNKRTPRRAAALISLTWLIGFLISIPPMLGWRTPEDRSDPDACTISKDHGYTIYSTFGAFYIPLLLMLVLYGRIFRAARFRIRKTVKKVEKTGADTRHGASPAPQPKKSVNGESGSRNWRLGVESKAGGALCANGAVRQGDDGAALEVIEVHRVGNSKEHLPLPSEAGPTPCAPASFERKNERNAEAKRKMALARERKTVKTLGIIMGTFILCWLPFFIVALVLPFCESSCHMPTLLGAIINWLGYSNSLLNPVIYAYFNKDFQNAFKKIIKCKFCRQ
Method: as §1, §2, §3

[3] = target: T3, 5-HT2A (Homo sapiens, UniProt P28223); test: Radioligand binding, 5-HT2A ([125] (±)DOI), membrane homogenates of HEK-293 cells; conditions: Table 5
T3 construct: host or cells: HEK-293
T3 sequence (P28223 whole entry): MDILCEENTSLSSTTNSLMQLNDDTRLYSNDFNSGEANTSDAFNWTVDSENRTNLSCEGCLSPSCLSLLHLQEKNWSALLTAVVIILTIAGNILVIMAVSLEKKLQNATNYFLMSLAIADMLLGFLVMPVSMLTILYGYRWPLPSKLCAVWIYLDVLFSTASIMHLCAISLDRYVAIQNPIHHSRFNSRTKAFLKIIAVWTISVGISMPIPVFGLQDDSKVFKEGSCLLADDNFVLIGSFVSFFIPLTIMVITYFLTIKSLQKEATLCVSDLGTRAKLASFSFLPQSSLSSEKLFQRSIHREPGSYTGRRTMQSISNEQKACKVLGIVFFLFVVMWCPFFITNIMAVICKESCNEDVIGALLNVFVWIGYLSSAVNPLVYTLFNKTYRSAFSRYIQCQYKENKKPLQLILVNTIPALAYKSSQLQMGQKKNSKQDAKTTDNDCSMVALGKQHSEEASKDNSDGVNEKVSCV
Method: as §1, §2, §3

[4] = target: T4, 5-HT2B (Homo sapiens, UniProt P41595); test: Radioligand binding, 5-HT2B ([125] (±)DOI), membrane homogenates of HEK-293 cells; design: host or cells: HEK-293; conditions: Table 5
T4 sequence (P41595 whole entry): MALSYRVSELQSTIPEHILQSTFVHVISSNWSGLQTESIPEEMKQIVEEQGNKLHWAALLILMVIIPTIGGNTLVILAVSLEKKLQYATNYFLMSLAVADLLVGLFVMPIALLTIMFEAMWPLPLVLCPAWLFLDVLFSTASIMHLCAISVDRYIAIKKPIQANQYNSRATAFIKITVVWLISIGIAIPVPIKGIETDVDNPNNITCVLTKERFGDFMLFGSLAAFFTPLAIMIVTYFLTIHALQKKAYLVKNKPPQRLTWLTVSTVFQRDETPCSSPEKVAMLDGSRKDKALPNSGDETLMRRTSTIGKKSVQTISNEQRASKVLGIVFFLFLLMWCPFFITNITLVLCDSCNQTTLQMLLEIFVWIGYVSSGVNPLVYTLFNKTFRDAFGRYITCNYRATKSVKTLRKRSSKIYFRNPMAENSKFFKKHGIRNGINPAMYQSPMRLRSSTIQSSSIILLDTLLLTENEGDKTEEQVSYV
Method: as §1, §2, §3

[5] = target: T2, 5-HT1A; conditions: cited from earlier work
[6] = target: T3, 5-HT2A; conditions: cited from earlier work
[7] = target: T4, 5-HT2B; conditions: comparison values (Roth et al.); cited from earlier work
[8] = target: T1, 5-HT3; conditions: read-out: Inhibition constants (Ki) 5-HT3; comparison values marked ‡ (Roth et al.); cited from earlier work
[9] = comparison values (Roth et al.)

| SMILES | activity at 5-HT3 (in words) [1] | activity at 5-HT1A (in words) [2] | activity at 5-HT2A (in words) [3] | activity at 5-HT2B (in words) [4] | activity at 5-HT1A (in words) [5, 9] | activity at 5-HT2A (in words) [6, 9] | activity at 5-HT2B (in words) [7] | Ki [8] [µM] | Ki ([5]; read-out: Inhibition constants (Ki) 5-HT1A, comparison values marked ‡ (Roth et al.)) [µM] | Ki ([6]; read-out: Inhibition constants (Ki) 5-HT2A, comparison values marked ‡ (Roth et al.)) [µM] |
| --- | --- | --- | --- | --- | --- | --- | --- | --- | --- | --- |
| CC(=O)Oc1cccc2[nH]cc(CC[N+](C)(C)C)c12 [Example 4-AcO-TMTI, 4-Acetoxy-N,N,N-trimethyltryptammonium Iodide] | shows no activity | shows no activity | shows no activity | shows no activity |  |  |  |  |  |  |
| C[N+](C)(C)CCc1c[nH]c2cccc(O)c12 [Example 4-HO-TMTI, 4-Hydroxy-N,N,N-trimethyltryptammonium Iodide] | no activity observed | shows activity | shows activity | shows activity |  |  |  |  |  |  |
| CN(C)CCc1c[nH]c2cccc(O)c12 [Psilocin] |  |  |  |  | shows activity | shows activity | significantly more potent than 4-HO-TMTI | > 10 |  |  |
| CN(C)CCc1c[nH]c2cccc(OP(=O)(O)O)c12 [Psilocybin] |  |  |  |  |  |  |  | > 10 | > 10 | > 10 |

Reference: patent US20240116867A1, “ALKYL […] AMMONIUM T[…] THEIR […] USES” (CAAMTECH, INC., priority 2019, published 2024)
